# From US5594001A, “Polycyclic systems, and derivatives thereof, as neurotransmitter release enhancers useful in the treatment of cognitive disorders” (The DuPont Merck Pharmaceutical Company, priority 1994, dated 1997)
# Where a name gives a salt, the structure may show the parent alone.
# Key:
# [1] = tested on: ACh level in the rat hippocampus; assay: Microdialysis, ACh levels in the rat hippocampus in vivo; parameters: species or system rat (male Wistar); conditions: for AUC, Area % under the curve / Peak, maximal % increase of ACh release over baseline / time of Peak after administration / Duration, minutes of release above statistical significance: Table IV
# Procedure: Male Wistar Rats are anaesthetized and guide cannulas stereotaxically implanted into the brain at the level of the dorsal hippocampus. Following a minimum recovery period of 72 h, dialysis probes (0.5 mm diameter, 4.0 mm long, from BAS) are inserted into the hippocampus through the guide cannulas. The probes are perfused at a rate of 2 μl/min with artificial cerebrospinal fluid containing 100 μM physostigmine sulfate (a cholinesterase inhibitor). Rats are allowed to acclimate for 2 hours prior to sample collection. Dialysate samples are collected every 20 min (40 μl) and immediately injected onto a high performance liquid chromatograph equipped for electrochemical detection (HPLC-EC) of acetylcholine (ACh). Following collection of 3 baseline samples, drugs or vehicle control are administered in 0.01 ml/g body weight and dialysate samples are collected for an additional 3 h. The ACh peak heights of the 3 samples prior to drug administration are averaged together to determine baseline ACh levels. ACh peak heights post drug administration are measured and used to determine percent change over baseline ACh levels. At the end of experiments, probe placement is verified histologically.
# ACh is separated by reverse phase chromatography (Hamilton PRP-1 column 150×4.5 mm) and converted to acetate, betaine and hydrogen peroxide on an immobilized enzyme reactor column (BAS). Hydrogen peroxide is then detected electrochemically. Mobile phase for the chromatography consists of 0.2M Na2 HPO4, 0.1 mM EDTA, 0.5 mM SOS, 0.9 mM TMA.Cl, with pH adjusted to 8.0 with phosphoric acid and […] Kathon CG (ESA) added to each liter of mobile phase to retard bacterial growth.
# FIGS. 1 and 2 show the effects of fluorine substitution to the pendant groups of the anthrone and azafluorene core series on the ability of compounds to increase the level of ACh in the rat hippocampus in vivo. All compounds were tested at 5 mg/kg except Ex. No 64 which was administered at 1 mg/kg. […] This was observed even though the compound was administered by a route (i.p.) which should lead to greater bioavailability than the oral route. Example 68 of the present invention, the bis-fluorinated analog of Example 611 or U.S. Pat. No. 5,173,489, on the other hand, led to a 2-fold increase in ACh levels which was maintained for over 1 hour (FIG. 1). The anthrone compound Ex. No. 440 of U.S. Pat. No. 5,173,489, at 5 mg/kg, led to a peak ACh level of 72% over baseline (FIG. 2). Ex. No. 64 of the present invention, which is the bis-fluoro analog of Ex. No. 440 of U.S. Pat. No. 5,173,489, at 1 mg/kg, led to a delayed increase in ACh levels reaching a peak of over 100% above baseline (FIG. 2). In contrast to the observed effects of Example 440 of U.S. Pat. No. 5,173,489, the increase in ACh level after administration of Example 64 of the present invention was maintained for the entire duration of testing (3 hours).
# [2] = tested on: stimulus-induced acetylcholine release, slices from the parietal cortex; assay: Neurotransmitter (ACh) release assay, rat cortex slices, K+ stimulated; assay type: cell-based, rat (male Wistar); conditions: for activation at 10 µM: Table II, % increase of drug-induced ACh release; for EC50: Table III
# Procedure: The neurotransmitter release activities of the compounds of this invention were determined using standard biochemical assay procedures for example, the neurotransmitter release assay as described below.
# Neurotransmitter release assay.
# The neurotransmitter (Ach) release activities of the compounds of this invention were determined by the assay as described by Nickolson, et al., Drug Development Research, (1990) 19: 285-300, a modification of the procedure described by Mulder, et al., Brain Res., (1974) 70: 372.
# Male Wistar rats (Charies River) weighing 175-200 grams were used. Rats were decapitated and brains were dissected immediately. Slices (0.3 mm thick) from the parietal cortex were prepared (approximately 100 mg wet weight) and were incubated in 10 ml KrebsRinger medium (KR) containing NaCl (116 mM), KCl (3 mM), CaCl2 (1.3 mM), MgCl2 (1.2 mM), KH2 PO4 (1.2 mM), Na2 SO4 (1.2 mM), NaHCO3 (25.0 mM), and glucose (11.0 mM), to which was added 10 uCi ^3 H-choline (specific activity approximately 35 Ci/mM; NEN) and […] unlabeled choline to give a final concentration of one micromole. The brain preparations were incubated for 30 min. at 37° C. under a steady flow of 95% O2 /5% CO2. Under these conditions, part of the radioactive choline taken up by the preparation was converted into radioactive acetylcholine (ACh) by the cholinergic nerve endings stored in synaptic vesicles, and released upon depolarization by high potassium ion (K+) containing media.
# After labelling of the ACh stores, the slices were washed three times with non-radioactive KR medium and transferred to a superfusion apparatus to measure the drug effects on ACh release. The superfusion apparatus consisted of 10 thermostated glass columns of 5 mm diameter that were provided with GF/F glass fiber filters to support the slices (approximately 10 mg tissue/column). Superfusion was carried out in KR-medium (0.3 ml/min.) containing […] hemicholine-3 (HC-3). The HC-3 prevents the reuptake of choline formed during the superfusion from phospholipids and released ACh, which would be converted into unlabeled ACh and released in preference to the preformed labeled ACh. The medium was delivered by a 25-channel peristaltic pump (Ismatec by Brinkman) and warmed to 37° C. in a thermostated stainless steel coil before entering the superfusion column. Each column was provided with a 4-way slider valve (Beckmann instruments) which allowed rapid change of low to high K+/KR-medium, and with two 10-channel 3-way valves that were used to change from drug-free to drug-containing low and high K+/KR-medium. After 15 min. of washout of non-specifically bound radioactivity, collection of 4 min. fractions was initiated. After three 4 min. collections, the original medium was changed to a KR-medium in which the KCl concentration had been increased to 25 mM (high K+ medium) (S1). Depolarization-induced stimulation of release by high K+/KR-medium lasted for 4 min. Drug free low and high K+/KR-media were then substituted by drug- and vehicle-containing low- and high-K+/KR-medium, and superfusion was continued for three 4 min. collections with low K+/KR-medium, one 4 min. collection with high K+/KR-medium (s2), and two 4 min. collections with low K+/KR-medium.
# Drug was added to the media by 100-fold dilutions of appropriate concentrations of the drug (in 0.9% saline) with either low- or high-K+/KR-medium. For comparative purposes, linopirdine was also run.
# All superfusion fractions were collected in liquid scintillation counting vials. After superfusion, the slices were removed from the superfusion columns and extracted with 1.0 ml of 0.1N HCl. Liquiscint (NEN) counting fluid (12 ml) was added to superfusion fractions and extracts, and the samples were counted in a Packard Tricarb Liquid Scintillation Counter. No corrections were made for quenching. […]
# [3] = 5 mg/kg, vehicle methocel, NSP = no significant points
smiles,measurement,setting,value
"O=C1c2ccccc2C(Cc2ccncc2)(Cc2ccncc2)c2ccccc21 [Ex 440 U.S. Pat. No. 5,173,489, reference compound]",peak ACh level over baseline,"[1]; 5 mg/kg oral, FIG. 2",72%
same,"AUC, Area % under the curve","[1]; 5 mg/kg, vehicle water",44 ± 34%
same,"Peak, maximal % increase of ACh release over baseline","[1]; 5 mg/kg, vehicle water",18 ± 15%
same,time of Peak after administration,"[1]; 5 mg/kg, vehicle water",20 min
same,"Duration, minutes of release above statistical significance","[1]; 5 mg/kg, vehicle water, NSP = no significant points",NSP
same,"AUC, Area % under the curve","[1]; 10 mg/kg, vehicle water",705 ± 112%
same,"Duration, minutes of release above statistical significance","[1]; 10 mg/kg, vehicle water",100 min
same,"Peak, maximal % increase of ACh release over baseline","[1]; 10 mg/kg, vehicle water",127 ± 31%
same,time of Peak after administration,"[1]; 10 mg/kg, vehicle water",60 min
"c1ccc2c(c1)-c1ncccc1C2(Cc1ccncc1)Cc1ccncc1 [Ex. No 611 of U.S. Pat. No. 5,173,489, reference compound]",effect on ACh levels over what was observed after vehicle administration,"[1]; 5 mg/kg i.p., FIG. 1",no effect on ACh levels
"c1ccc2c(c1)-c1sccc1C2Cc1ccncc1 (centres unmarked) [Example 1, 4-(4-Pyridinylmethyl)-4H-indeno[1,2-B]thiophene]",activation at 10 µM,[2],92%
"N#Cc1cccc(CC2(Cc3ccncc3)c3ccccc3-c3sccc32)c1 (centres unmarked) [Example 2, 3-[4-(4-Pyridinylmethyl)-4H-indeno[1,2-B]thiophen-4-ylmethyl-benzonitrile Hydrobromide Hydrate]",activation at 10 µM,[2],220%
"N#CCCCCC1(Cc2ccncc2)c2ccccc2-c2sccc21 (centres unmarked) [Example 3, 4-(4-Pyridinylmethyl)-4H-indeno[1,2-B]thiophene-4-pentanenitrile Hydrobromide Hydrate]",activation at 10 µM,[2],145%
"CCOC(=O)CC1(Cc2ccncc2)c2ccccc2-c2sccc21 (centres unmarked) [Example 4, 4-(4-Pyridinylmethyl)-4H-indeno[1,2-B]thiophene-4-acetic acid, Ethyl Ester Hydrochloride]",activation at 10 µM,[2],146%
"CC(=O)OCCCCC1(Cc2ccncc2)c2ccccc2-c2sccc21 (centres unmarked) [Example 5, 4-(4-Pyridinylmethyl)-4H-indeno[1,2-B]thiophene-4-butanol Acetate (Ester) Hydrochloride]",activation at 10 µM,[2],224%
"NC(=O)CCCCC1(Cc2ccncc2)c2ccccc2-c2sccc21 (centres unmarked) [Example 6, 4-(4-Pyridinylmethyl)-4H-indeno[1,2-B]thiophene-4-pentanamide Hydrochloride Hydrate]",activation at 10 µM,[2],163%
c1ccc(CC2(Cc3ccncc3)c3ccccc3-c3sccc32)cc1 (centres unmarked) [Example 8],activation at 10 µM,[2],130%
"c1cnc2c(c1)C(Cc1ccncc1)c1ccsc1-2 (centres unmarked) [Example 10, 4-(4-Pyridinylmethyl)-4H-thieno[2',3':3,4]cyclopenta[1,2-B]pyridine]",activation at 10 µM,[2],118%
"Fc1cc(CC2(Cc3ccncc3)c3cccnc3-c3sccc32)ccn1 (centres unmarked) [Example 11, 4-[(2-Fluoro-4-pyridinyl)methyl]-4-(4-pyridinylmethyl)-4H-thieno[3',2':4,5]cyclopenta[1,2-B]pyridine]",activation at 10 µM,[2],757%
"c1ccc(-n2cc3c(n2)-n2cccc2C3(Cc2ccncc2)Cc2ccncc2)cc1 [Example 15, 2,4-Dihydro-2-phenyl-4,4-bis(4-pyridinylmethyl)pyrazolo[4,3-B]pyrrolizine]",activation at 10 µM,[2],348%
"Oc1ccc2c(c1)C(Cc1ccnc(F)c1)(Cc1ccnc(F)c1)c1ccccc1-2 [Example 61, 9,9-Bis((2-fluoro-4-pyridinyl)methyl)-2-hydroxy-9H-fluorene]","AUC, Area % under the curve","[1]; 5 mg/kg, vehicle methocel",95 ± 61%
same,"Peak, maximal % increase of ACh release over baseline","[1]; 5 mg/kg, vehicle methocel",48 ± 22%
same,time of Peak after administration,"[1]; 5 mg/kg, vehicle methocel",20 min
same,"Duration, minutes of release above statistical significance",[1]; [3],40 min
O=C1c2ccccc2C(Cc2ccncc2)(Cc2ccnc(F)c2)c2ccccc21 [Example 66],EC50,[2],310 nM
"Fc1cc(CC2(Cc3ccncc3)c3ccccc3Oc3ncccc32)ccn1 (centres unmarked) [Example 70, 9-((2-Fluoro-4-pyridinyl)methyl)-9-(4-pyridinylmethyl)-4-azaxanthene]",EC50,[2],350 nM
"COc1ccc2c(c1)C(=O)c1ccc(OC)cc1C2(Cc1ccnc(F)c1)Cc1ccnc(F)c1 [Example 74, 10,10-Bis((2-fluoro-4-pyridinyl)methyl)-2,6-dimethoxy-9(10H)-anthracenone]",EC50,[2],880 nM
"COc1ccc2c(c1)C(Cc1ccnc(F)c1)(Cc1ccnc(F)c1)c1ccccc1C2=O [Example 77, 10,10-Bis((2-fluoro-4-pyridinyl)methyl)-3-methoxy-9(10H)-anthracenone]",EC50,[2],660 nM
"C#Cc1ccc2c(c1)C(Cc1ccnc(F)c1)(Cc1ccnc(F)c1)c1cccnc1-2 [Example 79, 5,5-Bis((2-fluoro-4-pyridinyl)methyl)-7-(ethynyl)-5H-indeno-[1,2-b]pyridine]",EC50,[2],2650 nM
"O=S1(=O)c2ccccc2C(Cc2ccnc(F)c2)(Cc2ccnc(F)c2)c2ccccc21 [Example 107, 5,5-Bis-(2-fluoropyridin-4-ylmethyl)thioxanthene-10,10-dioxide]","AUC, Area % under the curve","[1]; 5 mg/kg, vehicle methocel",281 ± 226%
same,"Peak, maximal % increase of ACh release over baseline","[1]; 5 mg/kg, vehicle methocel",41 ± 10%
same,time of Peak after administration,"[1]; 5 mg/kg, vehicle methocel",20 min
same,"Duration, minutes of release above statistical significance",[1]; [3],NSP
"[O-][S+]1c2ccccc2C(Cc2ccnc(F)c2)(Cc2ccnc(F)c2)c2ccccc21 [Example 108, 5,5-Bis(2-fluoropyridin-4-ylmethyl)thioxanthene-10-oxide]","AUC, Area % under the curve","[1]; 1 mg/kg, vehicle methocel",184 ± 124%
same,"Peak, maximal % increase of ACh release over baseline","[1]; 1 mg/kg, vehicle methocel",34 ± 19%
same,time of Peak after administration,"[1]; 1 mg/kg, vehicle methocel",100 min
same,"Duration, minutes of release above statistical significance","[1]; 1 mg/kg, vehicle methocel, NSP = no significant points",NSP
same,"AUC, Area % under the curve","[1]; 5 mg/kg, vehicle methocel",799 ± 202%
same,"Peak, maximal % increase of ACh release over baseline","[1]; 5 mg/kg, vehicle methocel",108 ± 80%
same,time of Peak after administration,"[1]; 5 mg/kg, vehicle methocel",80 min
same,"Duration, minutes of release above statistical significance",[1]; [3],>
